Experimental findings from US20200190151A1, “KV1.3-BLOCKING VENOM PEPTIDE VARIANTS AND RELATED USES” (The Scripps Research Institute, priority 2016, published 2020) are described below.

Entries after “also recorded” stand apart in the source; their conditions may differ. Where two headings read alike, the source gives them in different places.

For assay [1], the system named is Kv1.3 channel. It counts as cell-based, human.
Assay [2] has as its target T1, Kv1.3 channel (Homo sapiens, UniProt P22001).
T1 construct: expressed in transfected cells
In words: Whole-cell patch clamp electrophysiology, HEK293 Kv1.3 stable cells. It counts as cell-based. On the procedure: (§1) The variegated region of each variant was extracted based on the known flanking sequences. The ratio between number of unique toxins and count of all reads represented the diversity of a selected library. Highly enriched variants versus those that were not enriched were chosen and their affinity to Kv1.3 were assessed and ranked. In general, the enrichment factor of a variant is positively correlated with its affinity to Kv1.3 (FIG. 4). […] To test the critical property of specificity, patch clamp analysis of S1-2 was also carried out on HEK293 cells expressing other Kv1 family members including Kv1.1 through Kv1.7 and the hERG channel.
(§2) Electrophysiology recording: HEKA EPC 10 USB patch clamp amplifier (from HEKA Elektronik, Germany) was used for the whole cell recording. A cover slip with abundant single HEK293 Kv1.3 stable cells on the surface was removed and placed into a continuously perfused (approximately 1-2 ml/minute) recording chamber mounted on an inverted microscope. The Kv1.3 current was recorded from single cell using standard whole cell recording techniques. The cell was voltage clamped at a holding potential of −80 mV. Outward potassium currents were measured using the whole-cell configuration of the patch clamp technique at a test potential of 40 mV from a holding potential of −80 mV. Current records were acquired at 2-5 KHz and filtered at 1-2 KHz. […]
(In general: The patch-clamp technique gives a direct electrical read-out from membranes.)

In another assay the target is T2, Kv1.1 (Homo sapiens, UniProt Q09470).
T2 construct: expressed in transfected cells; host or cells: HEK293
In words: Patch clamp on HEK293 cells expressing Kv1.1. It counts as cell-based. On the procedure:
as §1, §2

Another assay has as its target T3, Kv1.6 (Homo sapiens, UniProt P17658).
T3 construct: expressed in transfected cells; host or cells: HEK293
The assay can be described thus: Patch clamp on HEK293 cells expressing Kv1.6. It counts as cell-based. As for the experimental part: as §1, §2

Where [3] appears, read: lentivirus encoding membrane tethered peptide.

Kv1.3 channel, sequence (P22001 53-575 limits assumed): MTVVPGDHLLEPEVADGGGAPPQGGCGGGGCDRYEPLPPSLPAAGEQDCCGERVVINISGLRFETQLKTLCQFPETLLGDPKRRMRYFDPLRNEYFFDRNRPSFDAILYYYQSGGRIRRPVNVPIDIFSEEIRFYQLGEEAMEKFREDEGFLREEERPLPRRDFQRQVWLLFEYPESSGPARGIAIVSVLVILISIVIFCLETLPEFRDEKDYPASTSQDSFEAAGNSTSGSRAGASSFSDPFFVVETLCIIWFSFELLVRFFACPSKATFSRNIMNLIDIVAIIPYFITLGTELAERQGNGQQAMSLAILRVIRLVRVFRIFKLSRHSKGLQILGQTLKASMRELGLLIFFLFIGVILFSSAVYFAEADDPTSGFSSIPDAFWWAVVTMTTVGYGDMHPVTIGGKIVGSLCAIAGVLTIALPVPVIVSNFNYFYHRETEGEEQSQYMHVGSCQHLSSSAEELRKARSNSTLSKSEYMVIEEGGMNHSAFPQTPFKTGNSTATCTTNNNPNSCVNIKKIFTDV
T1 sequence (P22001 whole entry): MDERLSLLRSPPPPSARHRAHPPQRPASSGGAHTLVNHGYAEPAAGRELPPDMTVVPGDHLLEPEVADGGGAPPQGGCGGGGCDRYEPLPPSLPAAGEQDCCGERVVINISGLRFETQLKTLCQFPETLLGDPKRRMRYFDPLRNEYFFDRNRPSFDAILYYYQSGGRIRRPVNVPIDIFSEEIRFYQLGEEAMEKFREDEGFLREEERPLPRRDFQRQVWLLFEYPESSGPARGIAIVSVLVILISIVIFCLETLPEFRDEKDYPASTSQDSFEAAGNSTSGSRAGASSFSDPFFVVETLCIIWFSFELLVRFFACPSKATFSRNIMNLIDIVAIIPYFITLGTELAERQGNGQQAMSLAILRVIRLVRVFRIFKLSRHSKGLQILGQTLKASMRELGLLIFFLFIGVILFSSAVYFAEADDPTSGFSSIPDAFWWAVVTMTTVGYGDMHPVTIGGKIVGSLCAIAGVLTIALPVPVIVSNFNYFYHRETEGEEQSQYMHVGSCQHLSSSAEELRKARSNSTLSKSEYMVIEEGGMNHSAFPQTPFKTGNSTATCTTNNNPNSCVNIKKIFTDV
T2 sequence (Q09470 whole entry): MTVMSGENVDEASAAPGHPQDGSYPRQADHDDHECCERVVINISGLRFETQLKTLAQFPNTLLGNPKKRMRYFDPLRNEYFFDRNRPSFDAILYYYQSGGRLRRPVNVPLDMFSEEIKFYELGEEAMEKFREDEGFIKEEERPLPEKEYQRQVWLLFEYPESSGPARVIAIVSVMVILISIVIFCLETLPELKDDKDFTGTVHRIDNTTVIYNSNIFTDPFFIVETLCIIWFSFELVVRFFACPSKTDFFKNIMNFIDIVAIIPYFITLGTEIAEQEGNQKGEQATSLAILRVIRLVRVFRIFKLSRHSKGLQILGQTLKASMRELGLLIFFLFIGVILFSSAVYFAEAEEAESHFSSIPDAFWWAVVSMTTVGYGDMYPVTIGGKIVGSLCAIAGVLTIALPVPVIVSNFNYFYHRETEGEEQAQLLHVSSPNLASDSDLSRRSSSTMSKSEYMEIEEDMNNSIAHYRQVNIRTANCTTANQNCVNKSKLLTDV
T3 sequence (P17658 whole entry): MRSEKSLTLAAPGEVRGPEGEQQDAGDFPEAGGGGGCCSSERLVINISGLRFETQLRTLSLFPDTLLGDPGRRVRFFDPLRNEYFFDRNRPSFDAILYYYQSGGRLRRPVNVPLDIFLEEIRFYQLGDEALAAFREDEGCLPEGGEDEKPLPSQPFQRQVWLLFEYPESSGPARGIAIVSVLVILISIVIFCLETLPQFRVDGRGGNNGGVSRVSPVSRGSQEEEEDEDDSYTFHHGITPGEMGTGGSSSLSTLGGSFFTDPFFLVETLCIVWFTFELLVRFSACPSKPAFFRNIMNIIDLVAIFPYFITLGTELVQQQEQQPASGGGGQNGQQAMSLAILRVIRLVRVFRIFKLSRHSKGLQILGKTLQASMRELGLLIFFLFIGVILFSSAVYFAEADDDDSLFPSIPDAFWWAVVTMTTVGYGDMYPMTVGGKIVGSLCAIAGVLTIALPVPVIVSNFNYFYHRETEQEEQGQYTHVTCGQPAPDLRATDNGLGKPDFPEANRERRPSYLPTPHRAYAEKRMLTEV

With Vc1.1, in the assay with Kv1.3 channel [1], the “Activation of tdTomato reporter in Kv1.3 reporter cells, in words” value (“Activation of tdTomato reporter” for short) is “no activity”.
Consider “CllTx1 (ITINVKCTSPQQCLRPCKDRFGQHAGGKCINGKCKCYP)”, for which the “Block / inhibition of Kv1.3 channel, in words” value with Kv1.3 channel [2] is given as “strongly blocked; also recorded: potently blocked”.
As for ShK, the “Block / inhibition of Kv1.3 channel, in words” value in the assay with Kv1.3 channel [2] is “comparable inhibition”. Also, the “Effect on Kv1.1, in words” value with Kv1.1 is “comparable inhibition”. Moreover, the “Effect on Kv1.6, in words” value with Kv1.6 was “comparable inhibition”. Further, in the assay with Kv1.3 channel [1] (setting [3]), the “Activation of tdTomato reporter” value is “stimulated the Kv1.3 reporter cells to express tdTomato fluorescent protein”.
For the substance “Exendin-4: GLP-1 receptor targeting peptide, negative control lentivirus”, in the assay with Kv1.3 channel [1] (setting [3]), the “Activation of tdTomato reporter” value is on record as “no activity”.
As to Anuroctoxin, in the assay with Kv1.3 channel [1] (setting [3]), the “Activation of tdTomato reporter” value is given as “stimulated the Kv1.3 reporter cells to express tdTomato fluorescent protein”.
